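Test compounds were applied to cells in 96-well plates for 48 hours at 5 doses. At the GI50, growth is halved.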 The source made the active and inactive calls. Rule as the data show it: active = GI50 up to about 1.1 µM and inactive = higher.
Columns and labels:
Test in all cases: NCI anticancer screen, dose series, 48 h
[1] = tested on: HT-29
[2] = tested on: 786-0
[3] = tested on: CCRF-CEM
[4] = tested on: SK-OV-3
[5] = tested on: NCI-H226
[6] = tested on: IGROV-1
[7] = tested on: KM12
[8] = tested on: COLO 205
[9] = tested on: SN12C
[10] = tested on: SK-MEL-2
[11] = tested on: SK-MEL-5
[12] = tested on: M14
[13] = tested on: UO-31
[14] = tested on: OVCAR-8
[15] = tested on: A549
[16] = tested on: EKVX
[17] = tested on: HL-60
[18] = tested on: NCI-H522
[19] = tested on: TK-10

Measured: GI50

N#Cc1c2c(c(N=P(c3ccccc3)(c3ccccc3)c3ccccc3)n3c1nc1ccccc13)CCCC2
inactive: [1] 14.7 µM | [2] 44 µM | [3] 16.7 µM | [4] 40.9 µM | [5] 3.68 µM | [6] 29.2 µM | [7] 17.4 µM | [8] 11.5 µM | [9] 13.1 µM | [10] 16.6 µM | [11] 10.8 µM | [12] 30.8 µM | [13] 12.4 µM | [14] 13 µM | [15] 21.3 µM | [16] 20 µM | [17] 3.86 µM | [18] 14.3 µM

CC1=N/C(=C\c2ccc([N+](=O)[O-])cc2)C(=O)O1
inactive: [1] > 100 µM | [2] > 100 µM | [6] > 100 µM | [7] > 100 µM | [8] > 100 µM | [9] > 100 µM | [10] > 100 µM | [11] > 100 µM | [12] > 100 µM | [13] > 100 µM | [14] > 100 µM | [15] > 100 µM | [16] > 100 µM | [17] > 100 µM | [19] > 100 µM | [18] > 100 µM

CN(C)CC/C(=N\Nc1ccc([N+](=O)[O-])cc1)c1ccccc1
inactive: [1] 9.23 µM | [2] 12.6 µM | [3] 7.23 µM | [4] 16.1 µM | [6] 11 µM | [7] 9.31 µM | [8] 14.9 µM | [9] 10.9 µM | [10] 12.9 µM | [11] 14.5 µM | [12] 13.9 µM | [13] 2.1 µM | [14] 14 µM | [15] 13.4 µM | [16] 14.3 µM | [17] 3.61 µM | [19] 4.14 µM | [18] 13.9 µM

COC(=O)N/N=C(\Cc1ccccc1)CN(C)C
inactive: [1] > 100 µM | [2] > 100 µM | [3] > 100 µM | [4] > 100 µM | [6] > 100 µM | [7] > 100 µM | [8] > 100 µM | [10] > 100 µM | [11] > 100 µM | [12] > 100 µM | [14] > 100 µM | [15] > 100 µM | [16] > 100 µM | [17] > 100 µM | [19] > 100 µM | [18] > 100 µM

O=C(COC(=O)c1cccc2c(=O)c3ccccc3[nH]c12)Nc1ccc(C(=O)O)cc1
inactive: [1] > 100 µM | [2] > 100 µM | [3] 69.5 µM | [4] > 100 µM | [5] > 10 µM | [6] 99.1 µM | [7] 47.2 µM | [8] > 100 µM | [9] > 100 µM | [11] > 100 µM | [12] > 100 µM | [13] 71.3 µM | [14] 78.7 µM | [15] > 100 µM | [16] > 100 µM | [17] 94 µM | [19] > 10 µM | [18] 43.7 µM

O=C(O)c1ccc(N/C(=C(/C(Cl)=C(Cl)Cl)[N+](=O)[O-])n2nnc3ccccc32)cc1
inactive: [1] > 100 µM | [2] > 100 µM | [3] > 100 µM | [4] > 100 µM | [5] > 100 µM | [7] > 100 µM | [8] > 100 µM | [9] > 100 µM | [10] > 100 µM | [12] > 100 µM | [13] > 100 µM | [14] > 100 µM | [15] > 100 µM | [16] > 100 µM

On1c(-c2ccccc2)c(-c2c(-c3ccccc3)n(O)c3ccccc23)c2ccccc21
inactive: [1] 45.7 µM | [2] 14.9 µM | [3] 34.3 µM | [4] 29.8 µM | [5] 17.7 µM | [7] 30.8 µM | [9] 46.3 µM | [10] 25.8 µM | [11] 21.9 µM | [13] 15.5 µM | [14] 26.1 µM | [15] 32.4 µM | [17] 32.7 µM | [19] 38 µM | [18] 22.8 µM

O=C(Nc1ccccc1)N1C(c2ccccc2)=N[C@@H](c2ccccc2)[C@@H]1c1ccccc1
inactive: [1] 16.6 µM | [2] 17.6 µM | [3] 22.6 µM | [5] 23.3 µM | [6] 22.4 µM | [7] 18.3 µM | [8] 14.6 µM | [9] 21.9 µM | [11] 13.6 µM | [12] 14.6 µM | [13] 16.1 µM | [14] 22.8 µM | [15] 21.2 µM | [16] 43.7 µM | [17] 19 µM | [19] 31.3 µM

O=P(Oc1ccc2ccccc2c1)(N1CC1)N1CC1
inactive: [1] > 100 µM | [2] 4.84 µM | [3] 44.9 µM | [4] 46.3 µM | [5] 16.2 µM | [6] 83.4 µM | [7] > 100 µM | [8] 55.6 µM | [9] 23.5 µM | [10] 68.1 µM | [12] 11.4 µM | [13] 10.7 µM | [14] 59.2 µM | [15] 5.62 µM | [16] 13.6 µM | [17] 26.4 µM | [19] 67.9 µM | [18] 11 µM

O=C1C2=C(C(c3ccccc3)=C1c1ccccc1)c1ccccc1C1(c3ccccc3)C2=C(O)C(c2ccccc2)=C1c1ccccc1 (stereo unspecified)
inactive: [1] > 100 µM | [2] > 100 µM | [4] > 100 µM | [5] > 100 µM | [6] > 100 µM | [7] > 100 µM | [8] > 100 µM | [9] > 100 µM | [10] > 100 µM | [11] > 100 µM | [12] > 100 µM | [13] > 100 µM | [14] > 100 µM | [15] > 100 µM | [16] > 100 µM | [17] > 100 µM | [19] > 100 µM | [18] > 100 µM

Cc1c(C(=O)C/C(=N/NC(=O)c2ccccc2)C(=O)Nc2ccc(Cl)cc2)[n+]([O-])c2ccccc2[n+]1[O-]
inactive: [1] > 100 µM | [2] > 100 µM | [3] 32.4 µM | [4] > 100 µM | [5] > 100 µM | [6] 99.5 µM | [7] > 100 µM | [8] > 100 µM | [9] > 100 µM | [10] > 100 µM | [11] > 100 µM | [12] > 100 µM | [14] > 100 µM | [15] > 100 µM | [17] 29 µM | [19] > 100 µM | [18] 38.4 µM

CCOC(=O)NC(=O)c1cn(CCN2CCN(C(=O)CCCCCCCCCCC(=O)N3CCN(CCn4cc(C(=O)NC(=O)OCC)c(=O)[nH]c4=O)CC3)CC2)c(=O)[nH]c1=O
inactive: [1] > 100 µM | [2] > 100 µM | [3] > 100 µM | [4] > 100 µM | [5] > 100 µM | [6] > 100 µM | [7] > 100 µM | [8] > 100 µM | [9] > 100 µM | [11] > 100 µM | [12] > 100 µM | [13] > 100 µM | [14] > 100 µM | [15] > 100 µM | [19] > 100 µM | [18] 86.5 µM

CCCCCC/C=C/CCCCCCCc1cccc(O)c1C(=O)O
inactive: [1] 14.4 µM | [2] > 100 µM | [3] 39.5 µM | [4] 36.3 µM | [6] 44.9 µM | [7] > 100 µM | [8] > 100 µM | [10] > 100 µM | [12] > 100 µM | [13] 86.9 µM | [14] 50.8 µM | [15] 50.4 µM | [16] 32.7 µM | [17] > 100 µM | [19] 70.3 µM | [18] 52.8 µM

CC(C)(C)CC(C)(C)c1cc2c(O)c(c1)Cc1cc(C(C)(C)CC(C)(C)C)cc(c1O)Cc1cc(C(C)(C)CC(C)(C)C)cc(c1O)Cc1cc(C(C)(C)CC(C)(C)C)cc(c1O)Cc1cc(C(C)(C)CC(C)(C)C)cc(c1O)Cc1cc(C(C)(C)CC(C)(C)C)cc(c1O)C2
inactive: [1] > 100 µM | [2] > 100 µM | [3] > 100 µM | [6] > 100 µM | [7] > 100 µM | [8] > 100 µM | [9] > 100 µM | [10] > 100 µM | [11] > 100 µM | [12] > 100 µM | [13] > 100 µM | [14] > 100 µM | [15] > 100 µM | [16] > 100 µM | [17] > 100 µM | [19] > 100 µM | [18] > 100 µM

ClCCCN1CCCCC1CCl (stereo unspecified)
inactive: [1] > 100 µM | [2] 72.1 µM | [3] 20.9 µM | [4] > 100 µM | [6] > 100 µM | [7] > 100 µM | [8] > 100 µM | [9] > 100 µM | [10] > 100 µM | [11] > 100 µM | [12] > 100 µM | [13] 92.7 µM | [14] > 100 µM | [15] > 100 µM | [17] 52.7 µM | [19] > 100 µM | [18] > 100 µM

C[C@]12CC[C@H](O)CC1=CC[C@@H]1C2CC[C@]2(C)Nc3c(cnn3-c3ccccc3)CC12 (stereo partly specified)
inactive: [1] 1.89 µM | [2] 1.56 µM | [3] 3.01 µM | [4] 4.07 µM | [5] 8.57 µM | [6] 7.05 µM | [7] 2.05 µM | [10] 9.73 µM | [11] 3.24 µM | [12] 6.34 µM | [13] 5.51 µM | [14] 6.87 µM | [15] 3.43 µM | [16] 6.07 µM | [17] 1.77 µM | [19] 9.48 µM

From ChEMBL document CHEMBL1201862, “PubChem BioAssay data set” (2004)
